# Reference: US20060111436A1, “Compositions and treatments for modulating kinase and/or HMG-CoA reductase” (priority 2004, published 2006)
# Key:
# Type in all cases: biochemical
# [1] = target: T1, human recombinant p38α protein kinase (Homo sapiens, UniProt Q16539); assay: Cell-free p38α MAP kinase modulation assay (phosphorylation of myelin basic protein); details: for p38α AC50 / AC50: concentration to activate phosphorylation of myelin basic protein by 50%, ANO = activation not observed at any concentration tested; for p38α IC50 / IC50: concentration to inhibit phosphorylation of myelin basic protein by 50%, INO = inhibition not observed at any concentration tested; for p38α Max % Act: maximum observed increase in p38 MAP kinase activity in presence of compound; for effect on p38α MAP kinase activity, in words: text summary of Table I; for p38α concentration at which maximum increase in activity is observed: value in parentheses in Max % Act
# T1 construct: purchased UBI 14-251; host or cells: E. coli
# T1 sequence (Q16539 whole entry): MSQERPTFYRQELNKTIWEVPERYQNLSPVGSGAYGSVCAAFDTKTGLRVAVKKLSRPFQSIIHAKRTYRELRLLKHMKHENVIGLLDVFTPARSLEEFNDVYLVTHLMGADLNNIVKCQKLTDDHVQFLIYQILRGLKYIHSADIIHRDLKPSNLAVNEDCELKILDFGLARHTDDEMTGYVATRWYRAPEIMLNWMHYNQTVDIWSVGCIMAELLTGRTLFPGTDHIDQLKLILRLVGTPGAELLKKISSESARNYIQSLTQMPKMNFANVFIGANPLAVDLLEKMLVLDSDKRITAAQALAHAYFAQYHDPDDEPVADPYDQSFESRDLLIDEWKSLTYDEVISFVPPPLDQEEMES
# Protocol: In vitro cell-free p38α MAP kinase modulation assays were conducted by the method as described in Clerk et al., supra, (1998). Briefly, human recombinant p38α protein kinase expressed in E. Coli (UBI #14-251) was used. Myelin basic protein (MBP, UBI #13-110) was employed as substrate, and microtiter plate wells were coated with MBP (0.01 mg/ml) overnight at 4° C. Candidate compound and/or vehicle was preincubated with 0.075 μg/mL enzyme in modified HEPES buffer pH 7.4 at 25° C. for 15 minutes. The reaction was initiated by addition of 100 μM ATP and allowed to proceed for another 60 minutes. The reaction was terminated by aspirating the solution. Phosphorylated MBP was detected by incubation with a mouse monoclonal IgG2a anti-phosphoMBP antibody. Bound anti-phosphoMBP antibody was quantitated by incubation with a HRP conjugated goat anti-mouse IgG.
# [2] = target: recombinant human p38β MAP kinase (Homo sapiens, UniProt Q15759); assay: Cell-free p38β MAP kinase modulation assay (phosphorylation of myelin basic protein); details: for AC50: concentration to activate phosphorylation of myelin basic protein by 50%, ANO = activation not observed at any concentration tested; for p38β Max % Act: maximum observed increase in p38 MAP kinase activity in presence of compound; for effect on p38β MAP kinase activity, in words: text summary of Table I; for p38β concentration at which maximum increase in activity is observed: value in parentheses in Max % Act
# recombinant human p38β MAP kinase, sequence (Q15759 whole entry): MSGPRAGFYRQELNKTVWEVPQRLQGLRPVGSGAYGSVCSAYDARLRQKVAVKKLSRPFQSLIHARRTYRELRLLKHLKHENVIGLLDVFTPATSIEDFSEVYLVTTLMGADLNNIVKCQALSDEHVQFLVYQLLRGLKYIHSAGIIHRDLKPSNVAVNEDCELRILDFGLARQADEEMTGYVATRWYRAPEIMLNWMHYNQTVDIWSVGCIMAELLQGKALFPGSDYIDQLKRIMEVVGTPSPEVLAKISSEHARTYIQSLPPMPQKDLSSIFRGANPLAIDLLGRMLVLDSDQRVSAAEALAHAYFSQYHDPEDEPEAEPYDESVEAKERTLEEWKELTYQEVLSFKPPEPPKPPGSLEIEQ
# [3] = target: T2, recombinant human p38γ MAP kinase (Homo sapiens, UniProt P53778); assay: Cell-free p38γ MAP kinase modulation assay (phosphorylation of myelin basic protein); details: for p38γ Max % Act: maximum observed increase in p38 MAP kinase activity in presence of compound; for effect on p38γ MAP kinase activity, in words: text summary of Table I; for p38γ concentration at which maximum increase in activity is observed: value in parentheses under Max % Act
# T2 sequence (P53778 1-367): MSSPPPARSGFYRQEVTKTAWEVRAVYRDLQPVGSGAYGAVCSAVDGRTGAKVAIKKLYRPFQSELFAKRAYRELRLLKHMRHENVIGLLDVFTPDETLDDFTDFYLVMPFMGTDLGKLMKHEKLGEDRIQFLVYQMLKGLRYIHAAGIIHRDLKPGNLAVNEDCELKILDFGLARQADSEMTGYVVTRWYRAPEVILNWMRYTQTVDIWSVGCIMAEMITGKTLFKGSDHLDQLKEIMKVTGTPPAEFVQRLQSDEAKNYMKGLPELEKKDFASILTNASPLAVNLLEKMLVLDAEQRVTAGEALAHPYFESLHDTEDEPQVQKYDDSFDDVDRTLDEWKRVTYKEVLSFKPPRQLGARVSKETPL
# [4] = target: T3, recombinant human p38δ MAP kinase (Homo sapiens, UniProt O15264); assay: Cell-free p38δ MAP kinase modulation assay (phosphorylation of myelin basic protein); details: for AC50: concentration to activate phosphorylation of myelin basic protein by 50%, ANO = activation not observed at any concentration tested; for p38δ Max % Act: maximum observed increase in p38 MAP kinase activity in presence of compound; for effect on p38δ MAP kinase activity, in words: text summary of Table I; for p38δ concentration at which maximum increase in activity is observed: value in parentheses under Max % Act
# T3 sequence (O15264 1-365): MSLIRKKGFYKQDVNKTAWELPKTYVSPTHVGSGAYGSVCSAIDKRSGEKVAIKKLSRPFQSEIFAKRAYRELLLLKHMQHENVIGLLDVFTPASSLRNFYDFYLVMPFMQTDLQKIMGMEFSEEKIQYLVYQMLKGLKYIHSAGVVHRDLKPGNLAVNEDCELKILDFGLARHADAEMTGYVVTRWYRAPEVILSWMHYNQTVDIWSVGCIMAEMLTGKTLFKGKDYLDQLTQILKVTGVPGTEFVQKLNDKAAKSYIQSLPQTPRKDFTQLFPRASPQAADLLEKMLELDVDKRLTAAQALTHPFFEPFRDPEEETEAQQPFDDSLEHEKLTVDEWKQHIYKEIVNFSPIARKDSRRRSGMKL
# [5] = concentration to inhibit phosphorylation of myelin basic protein by 50%, INO = inhibition not observed at any concentration tested
# [6] = concentration to activate phosphorylation of myelin basic protein by 50%, ANO = activation not observed at any concentration tested
SMILES,p38β Max % Act [2] [%],p38β concentration at which maximum increase in activity is observed [2] [µM],"AC50 [3, 6] [µM]","p38γ IC50 [3, 5]",p38γ Max % Act [3] [%],"effect on p38γ MAP kinase activity, in words [3]",p38γ concentration at which maximum increase in activity is observed [3],AC50 [4] [µM],p38δ Max % Act [4] [%],"effect on p38δ MAP kinase activity, in words [4]",p38δ concentration at which maximum increase in activity is observed [4],p38α AC50 [1],IC50 [1] [µM],further results
"CC(C)c1c(C(=O)Nc2ccccc2)c(-c2ccccc2)c(-c2ccc(F)cc2)n1CC[C@@H](O)C[C@@H](O)CC(=O)[O-].CC(C)c1c(C(=O)Nc2ccccc2)c(-c2ccccc2)c(-c2ccc(F)cc2)n1CC[C@@H](O)C[C@@H](O)CC(=O)[O-].[Ca+2] [Atorvastatin calcium, atorvastatin calcium, reference compound]",,,,,,,,,,,,ANO^d,,
"CCC(C)(C)C(=O)O[C@H]1C[C@@H](C)C=C2C=C[C@H](C)[C@H](CC[C@@H]3C[C@@H](O)CC(=O)O3)[C@H]21 [Simvastatin lactone, simvastatin lactone]",185,100,3 to 10,INO,127,can activate,(100 μM),~2,611,can activate,(100 μM),,,"AC50 [1]: ~20 µM; p38α IC50 [1]: INO^e; p38α Max % Act [1]: 207%; effect on p38α MAP kinase activity, in words [1]: can activate; p38α concentration at which maximum increase in activity is observed [1]: 100 µM; AC50 [2]: ~15 µM; p38β IC50 [2, 5]: INO; effect on p38β MAP kinase activity, in words [2]: can activate; p38δ IC50 [4, 5]: INO"
"COCc1c(C(C)C)nc(C(C)C)c(/C=C/[C@@H]2C[C@@H](O)CC(=O)O2)c1-c1ccc(F)cc1 [Cerivastatin lactone, cerivastatin lactone]",143,10,~5,INO,115,can activate,(100 μM),~8,158,can activate,(100 μM),,,"AC50 [1]: ~10 µM; p38α IC50 [1]: INO; p38α Max % Act [1]: 76%; effect on p38α MAP kinase activity, in words [1]: can activate; p38α concentration at which maximum increase in activity is observed [1]: 100 µM; AC50 [2]: ~5 µM; p38β IC50 [2, 5]: INO; effect on p38β MAP kinase activity, in words [2]: can activate; p38δ IC50 [4, 5]: INO"
"COCc1c(C(C)C)nc(C(C)C)c(C=CC(O)CC(O)CC(=O)[O-])c1-c1ccc(F)cc1.COCc1c(C(C)C)nc(C(C)C)c(C=CC(O)CC(O)CC(=O)[O-])c1-c1ccc(F)cc1.[Ca+2] (centres unmarked) [Cerivastatin calcium, reference compound]",,,,,,,,,,,,ANO,> 30,
"CC(C)c1c(C(=O)Nc2ccccc2)c(-c2ccccc2)c(-c2ccc(F)cc2)n1CC[C@@H]1C[C@@H](O)CC(=O)O1 [Atorvastatin lactone, atorvastatin lactone]",19,10,~10,,62,showed both inhibitory and activation activities,(10 μM),30 to 100,112,showed both inhibitory and activation activities,(30 μM),ANO,31,"IC50 [2, 5]: 94 µM; IC50 [3, 5]: ~50 µM; IC50 [4, 5]: 83 µM; p38δ Max % Act ([4]; listed as atorvastatin lacton): about 112%"
"CC(C)n1c(/C=C/C(O)CC(O)CC(=O)O)c(-c2ccc(F)cc2)c2ccccc21 (centres unmarked) [Fluvastatin sodium, fluvastatin sodium, reference compound]",,,,,,,,,,,,ANO,,
"O=C([O-])C[C@H](O)C[C@H](O)/C=C/c1c(C2CC2)nc2ccccc2c1-c1ccc(F)cc1.O=C([O-])C[C@H](O)C[C@H](O)/C=C/c1c(C2CC2)nc2ccccc2c1-c1ccc(F)cc1.[Ca+2] [Pitavastatin calcium, reference compound]",,,,INO,,,,,,,,ANO,101,"p38γ AC50 [3, 6]: ANO"
"CC(C)c1nc(N(C)S(C)(=O)=O)nc(-c2ccc(F)cc2)c1/C=C/[C@@H](O)C[C@@H](O)CC(=O)O [Rosuvastatin sodium, reference compound]",,,,,,,,,,,,ANO,,
